For 11 compounds, GI50 and TGI results are on record in PubChem BioAssay (NCI).

Test systems include ACHN renal; K-562 leukemia; MOLT-4 leukemia; NCI-H226 lung; OVCAR-3 ovarian; OVCAR-5 ovarian; SF-268 CNS; SR leukemia; T-47D breast; U251 CNS.
Common to all, as to experiment: inhibition of tumour cell growth, NCI panel, 48 h

Where “and” joins values, the source holds several entries; their conditions need not be identical. Equal values may be shown once.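 96-well plates; 48 h exposure; 5 concentrations. Endpoints by linear interpolation between flanking doses. Not reached: highest tested concentration assigned. Abbreviation: GI50, concentration required for 50% inhibition of growth. TGI: total growth inhibition.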

As for `C[C@]12O[C@H](C[C@]1(O)CO)n1c3ccccc3c3c4c(c5c6ccccc6n2c5c31)CNC4=O`, the GI50 in the test with ACHN renal was 22.2 nM and 16.8 nM; with MOLT-4 leukemia, 38.6 nM and 45.7 nM; in the test on NCI-H226 lung, 267 nM and 272 nM; in the test on OVCAR-3 ovarian it was 370 nM and 391 nM; with OVCAR-5 ovarian, 114 nM; in the test on SF-268 CNS, 209 nM and 222 nM. In addition, the GI50 with SR leukemia is 20.3 nM and 22 nM; in the test on T-47D breast, 79.1 nM and 337 nM; in the test with U251 CNS, 808 nM and 523 nM. Besides, the TGI with ACHN renal was > 6500 nM and 3130 nM; in the test with K-562 leukemia, above 100000 nM; in the test with MOLT-4 leukemia, 451 nM and 1180 nM; in the test with NCI-H226 lung it was 1790 nM and 2050 nM; in the test on OVCAR-3 ovarian, 3310 nM and 2760 nM; in the test with OVCAR-5 ovarian it was > 10000 nM and 4790 nM. Moreover, the TGI was 2560 nM and 2860 nM with SF-268 CNS; 474 nM and 240 nM in the test on SR leukemia; 1550 nM and 2160 nM with T-47D breast; 3580 nM and 2950 nM in the test on U251 CNS.
Take `COc1ccc(C(=O)c2cc(OC)c(OC)c(OC)c2)cc1OC(C)=O`: the GI50 in the test on ACHN renal is 37.9 nM; with K-562 leukemia, below 10 nM; with MOLT-4 leukemia it was below 19.9 nM; in the test with NCI-H226 lung, 8710 nM; with OVCAR-3 ovarian it was 29.2 nM; in the test on OVCAR-5 ovarian it was 4550 nM. The GI50 was 88.3 nM in the test with SF-268 CNS, below 10 nM with SR leukemia, 19900 nM with T-47D breast and 39.2 nM in the test with U251 CNS. The TGI was above 100000 nM in the test on ACHN renal; above 100000 nM in the test on K-562 leukemia; above 43300 nM in the test with MOLT-4 leukemia; above 100000 nM in the test with NCI-H226 lung; 84.8 nM with OVCAR-3 ovarian; above 100000 nM with OVCAR-5 ovarian. Also, the TGI is above 100000 nM in the test on SF-268 CNS, above 75200 nM with SR leukemia, above 100000 nM with T-47D breast and above 100000 nM with U251 CNS.
`CC1(C)N=C(N)N=C(N)N1c1cccc(C#N)c1`: the GI50 is 4090 nM in the test with ACHN renal; 293 nM in the test on K-562 leukemia; 3210 nM with MOLT-4 leukemia; 7070 nM in the test with NCI-H226 lung; 19000 nM in the test with OVCAR-3 ovarian; 2740 nM with OVCAR-5 ovarian. For the same compound, the GI50 in the test with SF-268 CNS was 692 nM; in the test with SR leukemia, 4360 nM; in the test with T-47D breast, above 100000 nM; in the test with U251 CNS, 752 nM. Further, the TGI in the test on ACHN renal, in the test with K-562 leukemia, in the test on MOLT-4 leukemia, in the test with NCI-H226 lung, in the test on OVCAR-3 ovarian and in the test on OVCAR-5 ovarian was above 100000 nM each time. Besides, the TGI in the test on SF-268 CNS, in the test with SR leukemia, in the test on T-47D breast and with U251 CNS was above 100000 nM throughout.
For the compound `C/C(=C\c1ccc(Cl)cc1)C(C)(C)C(=O)O`, the TGI in the test with ACHN renal, in the test with K-562 leukemia, in the test on MOLT-4 leukemia, in the test on NCI-H226 lung, in the test on OVCAR-3 ovarian and in the test with OVCAR-5 ovarian was above 100000 nM in each case. In addition, the TGI in the test on SF-268 CNS, with SR leukemia, in the test on T-47D breast and in the test on U251 CNS was above 100000 nM each time.
On to `COc1ccc(-c2ccc(/C=C/C(=O)NO)cc2)cc1`, for which the GI50 is 1070 nM in the test with ACHN renal; 2390 nM with K-562 leukemia; 375 nM in the test on MOLT-4 leukemia; 1090 nM with NCI-H226 lung; 518 nM with OVCAR-3 ovarian; 1740 nM in the test with OVCAR-5 ovarian. Besides, the GI50 with SF-268 CNS was 982 nM; in the test on SR leukemia, 378 nM; in the test with T-47D breast, 1470 nM; in the test on U251 CNS, 1140 nM. In addition, the TGI in the test on ACHN renal is 4480 nM; with K-562 leukemia, above 100000 nM; with NCI-H226 lung it was 4390 nM; in the test with OVCAR-3 ovarian it was 2760 nM; with OVCAR-5 ovarian, 17700 nM; with SF-268 CNS it was 5580 nM. The TGI with SR leukemia was above 20600 nM; with T-47D breast, 5580 nM; in the test with U251 CNS, 3080 nM.
`COc1cc(-c2cc(-c3ccc(N(C)C)cc3)nc(N3CCOCC3)c2C#N)cc(OC)c1OC`: the GI50 in the test with ACHN renal is 1020 nM; in the test with K-562 leukemia, 961 nM; in the test on MOLT-4 leukemia it was 1380 nM; in the test with NCI-H226 lung, 270 nM; in the test on OVCAR-3 ovarian it was 12900 nM; in the test with OVCAR-5 ovarian, 248 nM. Also, the GI50 with SF-268 CNS is 3730 nM; in the test on SR leukemia, 260 nM; in the test with T-47D breast it was 529 nM; in the test on U251 CNS, 1960 nM. Further, the TGI in the test with ACHN renal is above 100000 nM; in the test on K-562 leukemia, above 24600 nM; with MOLT-4 leukemia it was above 100000 nM; in the test with NCI-H226 lung, 995 nM; in the test on OVCAR-3 ovarian, above 83200 nM; in the test on OVCAR-5 ovarian, above 100000 nM. Moreover, the TGI in the test with SF-268 CNS was above 100000 nM; with SR leukemia, 4040 nM; with T-47D breast, above 22500 nM; with U251 CNS, above 84600 nM.
In the case of `O=C(NCc1cccnc1)/C(=C\c1ccc(Br)cc1)S(=O)(=O)c1ccccc1`, the GI50 in the test with ACHN renal was 719 nM; in the test on K-562 leukemia, 423 nM; in the test on MOLT-4 leukemia it was 419 nM; with NCI-H226 lung, 1290 nM; in the test on OVCAR-3 ovarian, 419 nM; in the test with OVCAR-5 ovarian, 929 nM. Further, the GI50 in the test with SF-268 CNS was 1000 nM; with SR leukemia, 309 nM; in the test on T-47D breast it was 1040 nM; in the test on U251 CNS, 774 nM. In addition, the TGI was determined as 1970 nM with ACHN renal; 13000 nM in the test with K-562 leukemia; 2950 nM in the test with MOLT-4 leukemia; 2670 nM with NCI-H226 lung; 1700 nM in the test with OVCAR-3 ovarian; 2330 nM in the test on OVCAR-5 ovarian. Further, the TGI was determined as 2820 nM in the test on SF-268 CNS, 2360 nM in the test on SR leukemia, 3120 nM in the test on T-47D breast and 2230 nM in the test on U251 CNS.
With `CC1(C)CCC[C@]23C(=O)O[C@](O)(C(=O)C4=C[C@@](C)(/C=C/CCCc5ccc6ccc7cccc8ccc5c6c78)CC[C@@]42O)[C@@H]13`, the GI50 with ACHN renal was 156 nM; in the test on K-562 leukemia, 300 nM; in the test on MOLT-4 leukemia, 265 nM; with NCI-H226 lung, 166 nM; with OVCAR-3 ovarian, 174 nM; in the test with OVCAR-5 ovarian, 187 nM. For the same compound, the GI50 is 208 nM with SF-268 CNS, 292 nM in the test on SR leukemia, 167 nM in the test on T-47D breast and 170 nM in the test on U251 CNS. Also, the TGI in the test on ACHN renal was found to be 290 nM; in the test on K-562 leukemia, 3190 nM; in the test with MOLT-4 leukemia, 11200 nM; with NCI-H226 lung, 328 nM; with OVCAR-3 ovarian, 336 nM; with OVCAR-5 ovarian it was 376 nM. Further, the results for the TGI in the test on SF-268 CNS, in the test with T-47D breast and in the test on U251 CNS were 498 nM, 422 nM and 344 nM, respectively.
For `CN(C)CCCNc1nn2c(=O)c3ccccc3nc2c2ccccc12`, the GI50 in the test on ACHN renal is 3750 nM; in the test on K-562 leukemia, 9940 nM; in the test on MOLT-4 leukemia, 2470 nM; with NCI-H226 lung, 5130 nM; in the test on OVCAR-3 ovarian, 10500 nM; with OVCAR-5 ovarian, 12800 nM. Besides, the GI50 was 7250 nM in the test with SF-268 CNS, 2550 nM with SR leukemia, 12700 nM with T-47D breast and 10800 nM with U251 CNS. For the same compound, the TGI with ACHN renal came out at 15000 nM; in the test on K-562 leukemia, 31800 nM; with MOLT-4 leukemia, 7160 nM; with NCI-H226 lung, 25500 nM; in the test with OVCAR-3 ovarian, 26400 nM; with OVCAR-5 ovarian, 34300 nM. Besides, the TGI was 37900 nM in the test on SF-268 CNS, 8740 nM in the test with SR leukemia, 33600 nM in the test with T-47D breast and 26500 nM with U251 CNS.
`COc1cc(C)c(C(=O)O[C@H]2[C@H](O[C@H]3[C@@H](O)COC(O[C@H]4C[C@H]5[C@@H]6CC=C7C[C@@H](O)CC[C@]7(C)[C@H]6CC[C@]5(C)[C@H]4[C@H](C)C(=O)CCC(C)C)[C@@H]3OC(C)=O)OC[C@@H](O)[C@@H]2O)c(C)c1` (some centres not stated): the GI50 was 76.7 nM with ACHN renal; below 10 nM with K-562 leukemia; below 10 nM with MOLT-4 leukemia; 135 nM in the test with NCI-H226 lung; 2770 nM in the test with OVCAR-3 ovarian; 580 nM with OVCAR-5 ovarian. Further, the GI50 in the test on SF-268 CNS is below 10 nM; in the test with SR leukemia, below 10 nM; in the test on T-47D breast, 24.9 nM; in the test with U251 CNS it was below 10 nM. The TGI with ACHN renal came to 18600 nM; with K-562 leukemia it was 7470 nM; in the test with MOLT-4 leukemia, 704 nM; in the test on NCI-H226 lung, 12400 nM; with OVCAR-3 ovarian, 22000 nM; in the test with OVCAR-5 ovarian, 18500 nM. In addition, the TGI with SF-268 CNS is 2920 nM; in the test on SR leukemia it was 21100 nM; in the test on T-47D breast, 16700 nM; with U251 CNS, 12800 nM.
Consider `C=C1CCC2C3(C)COC(c4ccc(NC(C)=O)cc4)OC3CCC2(C)C1C/C=C1/C(=O)OCC1O` (configuration not stated), for which the GI50 in the test with ACHN renal was 7630 nM; in the test with K-562 leukemia, 2260 nM; with MOLT-4 leukemia it was 2320 nM; in the test with NCI-H226 lung, 26300 nM; in the test with OVCAR-3 ovarian, above 100000 nM; with OVCAR-5 ovarian, above 100000 nM. In addition, the GI50 in the test with SF-268 CNS was above 100000 nM; in the test with SR leukemia it was 2330 nM; in the test with T-47D breast it was 2530 nM; in the test on U251 CNS it was 79000 nM. For the same compound, the TGI was above 100000 nM in the test with ACHN renal; above 100000 nM in the test with K-562 leukemia; 24900 nM in the test on MOLT-4 leukemia; above 100000 nM with NCI-H226 lung; above 100000 nM with OVCAR-3 ovarian; above 100000 nM with OVCAR-5 ovarian. Further, the TGI is above 100000 nM in the test on SF-268 CNS, 85100 nM with SR leukemia, above 100000 nM in the test on T-47D breast and above 100000 nM in the test with U251 CNS.
